Measurements taken from patent US9506907B2, “Bioengineered human trabecular meshwork for biological applications” (The Research Foundation of State University of New York, priority 2012, dated 2016).

Assays:
[1] = tested on: bioengineered HTM (primary HTM cells on gelatin-coated 12 μm SU-8 scaffolds); experiment: Perfusion of bioengineered HTM on SU-8 scaffold: transmembrane pressure at constant flow; assay type: cell-based, human
Excerpt: 1. The flow system apparatus (FIG. 2) incorporating the principles and features of this invention is contained within a controlled environment, which herein comprises of a stand-alone perfusion chamber, with a cell growth medium entry system (FIG. 2c; 204) and a screening agent (for example a glaucoma drug) entry system (FIG. 2c; 204) as shown in FIG. 2c. The system allows for the screening agent to be added to the perfusate at a pre-determined concentration for a pre-determined number of hours. […]
8. […] Back pressures were continuously monitored with a pressure transducer and recorded. […]
(§1) A flow system apparatus for the controlled flow pressure measurement was constructed as shown in FIG. 2C was contained in a perfusion chamber housing comprised of at least a perfusion chamber with an integrated pressure transducer (FIG. 2C; 206), the sterilized, HTM biocompatible coated, SU-8 3-D micro- and nanostructured scaffold with or without HTM cells placed within a cell-culture insert (FIG. 2A; 202) and were secured in the scaffold holder, comprising at least a bottom element adapted for effluent (FIG. 2A; 203), a top element adapted for media entry (FIG. 2A; 201) inside the perfusion chamber (FIG. 2c). […] Back pressures were continuously monitored with a pressure transducer (FIG. 2C; 206) and recorded. […]

[2] = tested on: HTM cells grown on SU-8 scaffolds (morphology, F-actin cytoskeleton); experiment: SEM and confocal imaging of HTM cells on SU-8 scaffolds after Lat-B perfusion; assay type: cell-based, human; settings: FIG. 15F
Excerpt: 11. Follow up cell characterization studies may be conducted as desired with standard techniques well known to those of skill in the art. For this invention, samples were fixed and stained for SEM and confocal image analysis as described herein (FIGS. 11-15).
Cells were characterized using standard procedures for SEM, Immunocytochemistry and confocal imaging, well known to those of skill in the art.
as §1, with “2c). This flow system allowed for simultaneous control of the flow and measurement of the transmembrane pressure, permitting the exploration of the outflow characteristics of the in vitro HTM model.” for “2c).”

C/C1=C/C(=O)O[C@@H]2C[C@@H](CC[C@H](C)/C=C\CC1)O[C@@](O)([C@@H]1CSC(=O)N1)C2 [Lat-B, latruncunlin-B]
perfusion pressure of the artificial trabecular meshwork after Lat-B treatment ([1]; FIG. 16, indicates decreased flow resistance): decreased dramatically | decrease of the resistance to flow ([1]; Lat-B added to the perfusate at 2 μM for 4 hours, constant flow, 34° C., N=8, p<0.05 (FIG. 16)): 92±6% | F-actin cytoskeleton (confocal) [2]: elongated actin fibers were disturbed and became punctate actin bundles
